Key:
[1] = test system: normal human neonatal foreskin epidermal keratinocytes (NHEK-F); experiment: Cell proliferation inhibition test; format: cell-based; details: Keratinocyte, 72 h, NHEK-F cells, three days incubation, ATPlite or CellTiterGlo, read-out: IC50 (concentration of the compound at which the cell count is reduced by 50%)
Summary of the method: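 IC50 is the compound level halving cell count relative to untreated wells, with counts from ATP-based luminescence (ATPlite or CellTiterGlo). Readout followed 3 days of compound exposure of overnight-attached neonatal foreskin keratinocytes (2×10^3/well, Humedia-EG2 medium).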

[2] = test system: TNFα production in LPS-stimulated Raw264.7 cells; experiment: TNFα production inhibition test; format: cell-based; details: Mus musculus, test compound 1 μmol/L, LPS 1 μg/mL, 16 hours, ELISA, read-out: Inhibition rate of TNFα production
Procedure: 7×10^4 mouse macrophage-derived cell line Raw264.7 cells were suspended in 100 μL of RPMI1640 medium containing 10% fetal bovine serum, plated in a 96-well plate and incubated overnight. The culture supernatant was removed and the test compound diluted in RPMI1640 medium containing 1% fetal bovine serum (final concentration: 1 μmol/L) was added. One hour after the addition, LPS (B4:0111) (Sigma-Aldrich, L2630) was added to a final concentration of 1 μg/mL. 16 hours after the stimulation, the culture supernatant was collected and the amount of TNFα produced in the culture supernatant was determined using ELISA kit (R&D Systems, MTA00B).
The inhibition rate was calculated from the following formula. Inhibition rate (%)=100−(amount of TNFα produced in the presence of test compound/amount of TNFα produced in the absence of test compound)×100

[3] = test system: TPA-induced ear edema and acanthosis in Balb/c mice; experiment: Mouse TPA-induced ear-swelling model; format: in vivo; details: topical, 240 h, 1% w/v solution, 20 μL applied to ear once a day from day 0 to day 9, female Balb/c mice, read-out: Inhibition rate of change in ear thickness on day 10
Procedure: Seven-week-old female Balb/c mice (Charles River Laboratories Japan) were used. 20 μL of a 20 ng/mL solution of TPA (Wako Pure Chemical Industries, 162-23591) dissolved in 5% DMSO/acetone was applied to the outer side of the mouse ear on day 0, day 2, day 4, day 7 and day 9 to induce ear edema and acanthosis. The test compound was dissolved in a 5% DMSO/acetone solution (concentration: 1% w/v) and 20 μL of the resulting solution was applied to the outer side of the ear once a day from day 0 to day 9. For the control group, a 5% DMSO/acetone solution was similarly applied. The TPA solution and the test compound solution were mixed and applied on the days for TPA application (day 0, day 2, day 4, day 7 and day 9). The ear thickness was chronologically measured on days 0-4 and days 7-10 using a micrometer (Mitutoyo, MDC-25MJT). The change in ear thickness and the inhibition rate were determined by the following formulas. Change in ear thickness=(ear thickness measured on day 10)−(ear thickness measured on day 0 before TPA application) Inhibition rate (%)=100−(change in ear thickness for test compound group/change in ear thickness for control group)×100

Row | Compound | IC50 [1] [nM] | inhibition at 1 µM [2] [%] | inhibition in vivo at 1 % strength [3] [%]
1 | O=C(O)c1cc(C2CC2)cnc1Nc1ccc2c(c1)sc(=O)n2Cc1ccccc1 [Example 75, 2-((3-benzyl-2-oxo-2,3-dihydrobenzo[d]thiazol-6-yl)amino)-5-cyclopropylnicotinic acid] | ≤ 10 | ≥ 50 | ≥ 20
2 | O=C(O)c1cc(Cl)ccc1Nc1cccc2c1ccn2-c1ccccc1 [Example 275, 5-chloro-2-((1-phenyl-1H-indol-4-yl)amino)benzoic acid] | ≤ 10 | ≥ 50 | ≥ 20
3 | O=C(O)c1cc(C(F)(F)F)ccc1Nc1ccc2c(ccn2Cc2ccccc2)c1 [Example 32, 2-((1-benzyl-1H-indol-5-yl)amino)-5-(trifluoromethyl)benzoic acid] | ≤ 10 | ≥ 50 | ≥ 20
4 | O=C(O)c1cc(C2CC2)ccc1Nc1ccc2c(ccn2Cc2cccc(OCC(F)(F)F)c2)c1 [Example 35, 5-cyclopropyl-2-((1-(3-(2,2,2-trifluoroethoxyl)benzyl)-1H-indol-5-yl)amino)benzoic acid] | ≤ 10 | ≥ 50 | ≥ 20
5 | O=C(O)c1cc(C2CC2)ccc1Nc1ccc2c(ccn2Cc2ccccc2)c1 [Example 94, 2-((1-benzyl-1H-indol-5-yl)amino)-5-cyclopropylbenzoic acid] | ≤ 10 | ≥ 50 | ≥ 20
6 | O=C(O)c1cc(C2CC2)ccc1Nc1ccc2c(c1)n(CC(F)(F)F)c(=O)n2-c1ccccc1 [Example 80, 5-cyclopropyl-2-((2-oxo-1-phenyl-3-(2,2,2-trifluoroethyl)-2,3-dihydro-1H-benzo[d]imidazol-5-yl)amino)benzoic acid] | 10 to 100 | ≥ 50 | –
7 | O=C(O)c1cc(C2CC2)ccc1Nc1ccc2c(c1)CC(=O)N2Cc1ccccc1 [Example 107, 2-((1-benzyl-2-oxoindolin-5-yl)amino)-5-cyclopropylbenzoic acid] | 10 to 100 | ≥ 50 | –
8 | O=C(O)c1cc(C2CC2)cnc1Nc1ccc2c(ccn2Cc2ccccc2)c1 [Example 37, 2-((1-benzyl-1H-indol-5-yl)amino)-5-cyclopropylnicotinic acid] | ≤ 10 | ≥ 50 | ≥ 20
9 | O=C(O)c1cc(Cl)ccc1Nc1ccc2c(c1)CCN2c1ccccc1 [Example 283, 5-chloro-2-((1-phenylindolin-5-yl)amino)benzoic acid] | ≤ 10 | ≥ 50 | –
10 | O=C(O)c1cc(C2CC2)ccc1Nc1ccc2c(c1)n(CC1CC1)c(=O)n2-c1ccccc1 [Example 82, 5-cyclopropyl-2-((3-(cyclopropylmethyl)-2-oxo-1-phenyl-2,3-dihydro-1H-benzo[d]imidazol-5-yl)amino)benzoic acid] | 10 to 100 | ≥ 50 | –
11 | O=C(O)c1cc(C2CC2)ccc1Nc1ccc2c(ccn2-c2ccc(C(F)(F)F)cc2)c1 [Example 375, 5-cyclopropyl-2-((1-(4-(trifluoromethyl)phenyl)-1H-indol-5-yl)amino)benzoic acid] | ≤ 10 | ≥ 50 | –
12 | Cn1c(=O)n(Cc2ccccc2)c2ccc(Nc3ccc(Cl)cc3C(=O)O)cc21 [Example 65, 2-((1-benzyl-3-methyl-2-oxo-2,3-dihydro-1H-benzo[d]imidazol-5-yl)amino)-5-chlorobenzoic acid] | 100 to 1000 | ≥ 50 | –
13 | O=C(O)c1cc(Cl)cnc1Nc1ccc2c(ccn2Cc2cccc(OC(F)(F)F)c2)c1 [Example 361, 5-chloro-2-((1-(3-(trifluoromethoxy)benzyl)-1H-indol-5-yl)amino)nicotinic acid] | 10 to 100 | ≥ 50 | –
14 | O=C(O)c1cc(C2CC2)ccc1Nc1ccc2c(c1)CC(=O)N2CC1CC1 [Example 108, 5-cyclopropyl-2-((1-(cyclopropylmethyl)-2-oxoindolin-5-yl)amino)benzoic acid] | 10 to 100 | ≥ 50 | –
15 | O=C(O)c1cc(Cl)cnc1Nc1ccc2c(ccn2Cc2ccccc2)c1 [Example 90, 2-((1-benzyl-1H-indol-5-yl)amino)-5-chloronicotinic acid] | 10 to 100 | ≥ 50 | ≥ 20
16 | O=C(O)c1cc(Cl)ccc1Nc1ccc2c(ccn2Cc2cccc(OCC(F)(F)F)c2)c1 [Example 84, 5-chloro-2-((1-(3-(2,2,2-trifluoroethoxyl)benzyl)-1H-indol-5-yl)amino)benzoic acid] | ≤ 10 | ≥ 50 | –
17 | CN(C)c1ccc(Cn2ccc3cc(Nc4ccc(C5CC5)cc4C(=O)O)ccc32)cc1 [Example 198, 5-cyclopropyl-2-((1-(4-(dimethylamino)benzyl)-1H-indol-5-yl)amino)benzoic acid] | ≤ 10 | ≥ 50 | –
18 | O=C(O)c1cc(C2CC2)ccc1Nc1ccc2c(ccn2-c2ccccc2)c1 [Example 59, 5-cyclopropyl-2-((1-phenyl-1H-indol-5-yl)amino)benzoic acid] | ≤ 10 | ≥ 50 | –
19 | COCCOc1cccc(Cn2ccc3cc(Nc4ccc(Cl)cc4C(=O)O)ccc32)c1 [Example 298, 5-chloro-2-((1-(3-(2-methoxyethoxyl)benzyl)-1H-indol-5-yl)amino)benzoic acid] | ≤ 10 | ≥ 50 | –
20 | O=C(O)c1cc(Cl)ccc1Nc1ccc2c(ccn2Cc2ccccc2)c1 [Example 2, 2-((1-benzyl-1H-indol-5-yl)amino)-5-chlorobenzoic acid] | ≤ 10 | ≥ 50 | –
21 | O=C(O)c1cc(Cl)ccc1Nc1ccc2c(ccn2Cc2cccc(N3CCOCC3)c2)c1 [Example 14, 5-chloro-2-((1-(3-morpholinobenzyl)-1H-indol-5-yl)amino)benzoic acid] | ≤ 10 | ≥ 50 | –
22 | O=C(O)c1cc(Cl)ccc1Nc1ccc2c(cnn2Cc2ccccc2)c1 [Example 21, 2-((1-benzyl-1H-indazol-5-yl)amino)-5-chlorobenzoic acid] | ≤ 10 | ≥ 50 | –
23 | O=C(O)c1cc(Cl)ccc1Nc1cnc2c(ccn2Cc2ccccc2)c1 [Example 11, 2-((1-benzyl-1H-pyrrolo(2,3-b)pyridin-5-yl)amino)-5-chlorobenzoic acid] | 10 to 100 | ≥ 50 | –
24 | O=C(O)c1cc(Cl)ccc1Nc1ccc2c(ccn2C2CC2)c1 [Example 98, 5-chloro-2-((1-(cyclopropyl)-1H-indol-5-yl)amino)benzoic acid] | 10 to 100 | ≥ 50 | –
25 | O=C(O)c1cc(Cl)ccc1Nc1ccc2c(c1)sc(=O)n2Cc1ccccc1 [Example 67, 2-((3-benzyl-2-oxo-2,3-dihydrobenzo[d]thiazol-6-yl)amino)-5-chlorobenzoic acid] | 10 to 100 | ≥ 50 | –
26 | CC(C)n1ccc2cc(Nc3ccc(C4CC4)cc3C(=O)O)ccc21 [Example 112, 5-cyclopropyl-2-((1-isopropyl-1H-indol-5-yl)amino)benzoic acid] | ≤ 10 | ≥ 50 | –
27 | O=C(O)c1cc(C2CC2)ccc1Nc1cnc2c(ccn2Cc2ccccc2)c1 [Example 27, 2-((1-benzyl-1H-pyrrolo(2,3-b)pyridin-5-yl)amino)-5-cyclopropylbenzoic acid] | ≤ 10 | ≥ 50 | –
28 | O=C(O)c1cc(Cl)ccc1Nc1ccc2c(ccn2Cc2cccc(OC(F)F)c2)c1 [Example 277, 5-chloro-2-((1-(3-(difluoromethoxy)benzyl)-1H-indol-5-yl)amino)benzoic acid] | ≤ 10 | ≥ 50 | –
29 | O=C(O)c1cc(Cl)ccc1Nc1ccc2c(c1)CN(c1ccccc1)C2=O [Example 281, 5-chloro-2-((1-oxo-2-phenylisoindolin-5-yl)amino)benzoic acid] | 100 to 1000 | ≥ 50 | –
30 | O=C(O)c1cc(Cl)ccc1Nc1ccc2c(ccn2-c2ccc(F)cc2)c1 [Example 331, 5-chloro-2-((1-(4-fluorophenyl)-1H-indol-5-yl)amino)benzoic acid] | ≤ 10 | ≥ 50 | –
